“Also recorded” adds a separate entry of the source.
Experiments:
[1] = system: human PBMC; assay: TNF production by human PBMC (ELISA); type: cell-based; details: 24 hours
Procedure: (§1) For murine BMDCs, bone morrow cells were cultured in Petri dishes in 10 ml DMEM cell culture medium containing 10 ng/ml of murine GM-CSF (R&D Systems). On day 3 of culture, this was replaced with fresh GM-CSF medium. Loosely adherent cells were transferred to a fresh Petri dish and cultured for an additional 4 d. Human PBMC were purchased from Stemcell Technologies. THP-1 (ATCC) cells were differentiated by treatment with 100 nM PMA (Sigma) in RPMI cell culture medium [RPMI containing 10% vol/vol FBS (Gemini Bio Products), 1% penicillin and streptomycin (Life Technologies)] for 24 hours. After that, cells were washed with PBS and cultured in fresh RPMI cell culture medium for 24 hours before use in studies.
[…] Mouse TNF, IL-6, or IFN-β, or human TNF in the supernatants were measured by ELISA kits according to the manufacturer's instructions (eBioscience and PBL Assay Science). Pretreatment with 20 μg/ml anti-TLR1, anti-TLR2 or isotype control antibody (eBioscience) was for 1 hour. Unless otherwise indicated, mouse cells were from wild type C57BL/6J mice.

[2] = system: mouse peritoneal macrophages; assay: TNF production by mouse peritoneal macrophages (ELISA); type: cell-based; details: Peritoneal macrophage, 4 hours, read-out: EC50, dose-dependent TNF production
Procedure: Thioglycollate-elicited macrophages were recovered 4 days after i.p. injection of 2 ml BBL thioglycollate medium, brewer modified (4% wt/vol; BD Biosciences) by peritoneal lavage with 5 ml phosphate buffered saline (PBS). The peritoneal macrophages were cultured in DMEM cell culture medium [DMEM containing 10% vol/vol FBS (Gemini Bio Products), 1% vol/vol penicillin and streptomycin (Life Technologies)] at 37° C. and 95% air/5% CO2.
(§2) Cells were seeded onto 96-well plates at 1×10^5 cells per well and stimulated with a Diprovocim (dissolved in DMSO, and final DMSO concentrations (0.2%) were kept constant in all experiments) for 4 h. Mouse TNF, IL-6, or IFN-β, or human TNF in the supernatants were measured by ELISA kits according to the manufacturer's instructions (eBioscience and PBL Assay Science). Pretreatment with 20 μg/ml anti-TLR1, anti-TLR2 or isotype control antibody (eBioscience) was for 1 hour. Unless otherwise indicated, mouse cells were from wild type C57BL/6J mice.

[3] = system: mouse BMDC; assay: IL-6 production by mouse BMDC (ELISA); type: cell-based; details: 4 hours
Procedure: as §1, §2

[4] = target: T1, mouse TLR1/TLR2 heterodimer (Mus musculus, UniProt Q9EPQ1+Q9QUN7); assay: TNF induction in peritoneal macrophages from mice deficient in TLR signaling components; type: cell-based; details: 500 nM, 4 hours, vs C57BL/6J cells
T1 construct: endogenous in cells; host or cells: thioglycollate-elicited peritoneal macrophages of C57BL/6J mice (wild type and knockout/mutant genotypes)
Description: (§3) C57BL/6J, Tlr2^−/−, Myd88^−/− and OT-I mice were purchased from The Jackson Laboratory. Ly96^−/− (MD-2^−/−) mice were from RIKEN BRC. Tlr4^1ps3/lps3, Tlr6^int/int, Tlr7^rsql/rsql, Tirapt^tor/tor, Ticam1^Lps2/Lps2, Ticam1^Lps2/Lps2/Irak4^otiose/otiose mice were generated on a pure C57BL/6J background by ENU mutagenesis and are described at http://mutagenetix.utsouthwestern.edu.
(§4) Tlr1^−/− mice were created by CRISPR/Cas 9 gene targeting. Female C57BL/6J mice were superovulated by injection of 6.5 U pregnant mare serum gonadotropin (PMSG; Millipore), followed by injection of 6.5 U human chorionic gonadotropin (hCG; Sigma-Aldrich) 48 hours later. The superovulated mice were subsequently mated overnight with C57BL/6J male mice. The following day, fertilized eggs were collected from the oviducts and in vitro-transcribed Cas9 mRNA (50 ng/μl) and Tlr1 small base-pairing guide RNA (50 ng/μl; 5′-[…]-3′; SEQ ID NO: XX) were injected into the cytoplasm or pronucleus of the embryos. […]
as §2, with “Pretreatment with 20 μg/ml anti-TLR1, anti-TLR2 or isotype control antibody (eBioscience) was for 1 hour. Unless otherwise indicated, mouse cells were from wild type C57BL/6J mice.” left out

[5] = system: mouse TLR1/TLR2 heterodimer; assay: as above; type: cell-based; details: 500 nM, 4 hours, vs C57BL/6J cells
Description: as §3, §4
as §2, with “Pretreatment with 20 μg/ml anti-TLR1, anti-TLR2 or isotype control antibody (eBioscience) was for 1 hour. Unless otherwise indicated, mouse cells were from wild type C57BL/6J mice.” left out

[6] = target: T2, human TLR1/TLR2 (Homo sapiens, UniProt O60603+Q15399); assay: TNF in THP-1 cells pretreated with anti-TLR1 or anti-TLR2 antibody; type: cell-based; details: 250 pM, 4 hours; antibody 20 μg/ml, 1 hour pretreatment
T2 construct: TNF in the supernatants of human THP-1 cells pretreated with control antibody, anti-TLR1 (20 μg/ml), or anti-TLR2 (20 μg/ml); host or cells: THP-1 cells differentiated with 100 nM PMA
Procedure: as §2

[7] = system: MAPK and canonical NF-κB signaling; assay: Western blotting of THP-1 cell lysates; type: cell-based, human; details: THP-1 cells, 5 nM
Procedure: (§5) Mouse peritoneal macrophages or human THP-1 cells (1×10^6 per well) were stimulated in 12-well plates with a Diprovocim at 500 nM for mouse cells or 5 nM for human cells for the indicated times and lysed directly in sample buffer (Sigma). Cell lysates were separated by SDS-PAGE and transferred to nitrocellulose membranes. Membranes were probed with the following antibodies: phospho-IKKα (Ser176)/IKKβ (Ser177), IκBα, phospho-p38 (Thr180/Tyr182), phospho-JNK (Thr183/Tyr185), phospho-ERK1/2 (Thr202/Tyr204) (Cell Signaling Technology) and β-Actin (Sigma).

[8] = system: MAPK and canonical NF-κB signaling; assay: Western blotting of mouse peritoneal macrophage lysates; type: cell-based; details: mouse peritoneal macrophages, 500 nM
Procedure: as §5

[9] = system: B16-OVA and B16F10 tumor cells; assay: Re-challenge of tumor-free survivors with B16-OVA and B16 cells; type: in vivo, mouse; details: survivors of Diprovocim+OVA plus anti-PD-L1, no further therapy

T2 sequence (Q15399 25-786): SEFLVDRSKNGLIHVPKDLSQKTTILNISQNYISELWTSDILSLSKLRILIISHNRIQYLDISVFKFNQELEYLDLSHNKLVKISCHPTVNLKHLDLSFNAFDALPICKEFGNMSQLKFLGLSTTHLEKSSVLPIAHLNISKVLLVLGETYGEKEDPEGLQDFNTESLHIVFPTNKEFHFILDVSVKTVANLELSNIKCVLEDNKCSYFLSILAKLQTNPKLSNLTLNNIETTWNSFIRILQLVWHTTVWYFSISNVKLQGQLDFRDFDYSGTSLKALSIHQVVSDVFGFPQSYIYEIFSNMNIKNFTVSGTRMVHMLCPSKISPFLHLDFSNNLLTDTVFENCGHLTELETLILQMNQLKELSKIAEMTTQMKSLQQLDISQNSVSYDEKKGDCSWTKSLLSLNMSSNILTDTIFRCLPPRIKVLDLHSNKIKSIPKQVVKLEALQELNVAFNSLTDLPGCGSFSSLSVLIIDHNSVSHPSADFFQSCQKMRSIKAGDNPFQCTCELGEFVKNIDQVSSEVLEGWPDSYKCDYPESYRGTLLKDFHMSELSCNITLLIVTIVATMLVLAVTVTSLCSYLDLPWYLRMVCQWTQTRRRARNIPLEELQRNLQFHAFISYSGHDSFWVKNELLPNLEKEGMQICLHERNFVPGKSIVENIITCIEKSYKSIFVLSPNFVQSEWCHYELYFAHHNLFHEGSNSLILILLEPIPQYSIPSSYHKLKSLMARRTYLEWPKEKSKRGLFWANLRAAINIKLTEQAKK
T2 sequence (O60603 21-784): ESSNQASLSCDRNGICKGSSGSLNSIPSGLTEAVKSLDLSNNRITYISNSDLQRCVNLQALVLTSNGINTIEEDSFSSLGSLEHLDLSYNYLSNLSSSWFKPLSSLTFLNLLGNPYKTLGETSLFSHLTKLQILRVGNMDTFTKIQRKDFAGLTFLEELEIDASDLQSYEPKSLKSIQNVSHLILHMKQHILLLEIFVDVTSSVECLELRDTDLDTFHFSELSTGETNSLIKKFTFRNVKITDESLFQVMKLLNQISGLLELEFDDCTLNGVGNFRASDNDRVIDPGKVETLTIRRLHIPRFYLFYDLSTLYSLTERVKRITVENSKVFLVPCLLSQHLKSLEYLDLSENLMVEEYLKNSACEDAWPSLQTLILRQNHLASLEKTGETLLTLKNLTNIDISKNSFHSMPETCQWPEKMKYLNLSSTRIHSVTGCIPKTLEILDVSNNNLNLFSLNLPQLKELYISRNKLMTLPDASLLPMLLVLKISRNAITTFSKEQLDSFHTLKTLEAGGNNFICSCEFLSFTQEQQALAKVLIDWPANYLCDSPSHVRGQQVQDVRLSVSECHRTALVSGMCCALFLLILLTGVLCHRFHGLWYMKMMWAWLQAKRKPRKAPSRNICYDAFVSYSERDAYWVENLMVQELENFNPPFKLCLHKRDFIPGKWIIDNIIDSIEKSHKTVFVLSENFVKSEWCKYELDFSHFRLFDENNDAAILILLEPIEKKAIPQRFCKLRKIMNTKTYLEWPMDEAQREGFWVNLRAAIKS
T1 sequence (Q9EPQ1 26-795): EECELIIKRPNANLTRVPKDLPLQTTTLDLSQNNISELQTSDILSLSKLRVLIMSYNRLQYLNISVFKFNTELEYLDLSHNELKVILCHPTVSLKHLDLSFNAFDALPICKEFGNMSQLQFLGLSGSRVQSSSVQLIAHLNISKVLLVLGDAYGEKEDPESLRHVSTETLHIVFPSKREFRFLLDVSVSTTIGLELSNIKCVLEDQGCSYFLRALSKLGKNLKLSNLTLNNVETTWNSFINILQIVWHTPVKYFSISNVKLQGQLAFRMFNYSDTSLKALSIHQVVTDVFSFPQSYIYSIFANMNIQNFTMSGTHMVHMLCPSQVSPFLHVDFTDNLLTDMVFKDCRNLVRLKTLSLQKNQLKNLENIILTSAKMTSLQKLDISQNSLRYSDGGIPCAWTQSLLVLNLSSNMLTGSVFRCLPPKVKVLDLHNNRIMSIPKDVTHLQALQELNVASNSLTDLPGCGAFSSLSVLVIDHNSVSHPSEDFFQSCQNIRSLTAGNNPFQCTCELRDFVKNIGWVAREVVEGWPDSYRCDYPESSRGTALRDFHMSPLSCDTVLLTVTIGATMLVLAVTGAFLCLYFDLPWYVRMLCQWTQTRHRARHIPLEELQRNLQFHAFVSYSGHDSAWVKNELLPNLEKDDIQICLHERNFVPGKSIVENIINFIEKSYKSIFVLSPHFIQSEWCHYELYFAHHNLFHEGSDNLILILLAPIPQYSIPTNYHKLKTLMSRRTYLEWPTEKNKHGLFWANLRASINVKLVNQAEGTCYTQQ
T1 sequence (Q9QUN7 25-784): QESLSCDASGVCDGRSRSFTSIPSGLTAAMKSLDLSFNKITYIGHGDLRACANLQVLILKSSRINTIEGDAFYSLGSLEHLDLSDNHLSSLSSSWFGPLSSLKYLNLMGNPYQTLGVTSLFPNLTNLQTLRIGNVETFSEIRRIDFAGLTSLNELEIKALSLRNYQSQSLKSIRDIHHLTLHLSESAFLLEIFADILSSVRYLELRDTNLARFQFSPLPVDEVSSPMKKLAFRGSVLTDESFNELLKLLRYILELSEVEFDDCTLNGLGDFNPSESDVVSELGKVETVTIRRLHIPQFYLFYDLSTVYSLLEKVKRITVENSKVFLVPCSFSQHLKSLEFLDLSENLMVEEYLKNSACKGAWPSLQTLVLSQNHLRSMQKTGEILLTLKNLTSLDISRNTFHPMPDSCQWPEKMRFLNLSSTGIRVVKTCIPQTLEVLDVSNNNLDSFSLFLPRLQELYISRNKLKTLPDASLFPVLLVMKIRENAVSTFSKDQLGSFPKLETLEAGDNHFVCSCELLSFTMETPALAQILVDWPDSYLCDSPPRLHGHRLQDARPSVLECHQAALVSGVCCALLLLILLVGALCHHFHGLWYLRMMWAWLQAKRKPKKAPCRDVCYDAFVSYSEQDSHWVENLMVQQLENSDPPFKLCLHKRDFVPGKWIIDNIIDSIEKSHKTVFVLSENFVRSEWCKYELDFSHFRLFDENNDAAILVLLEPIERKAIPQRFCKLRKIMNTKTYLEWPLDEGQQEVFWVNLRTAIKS

With O=C(N[C@H]1C[C@@H]1c1ccccc1)[C@@H]1CN(C(=O)c2ccc(C(=O)N3C[C@@H](C(=O)N[C@H]4C[C@@H]4c4ccccc4)[C@H](C(=O)N[C@H]4C[C@@H]4c4ccccc4)C3)cc2)C[C@H]1C(=O)N[C@H]1C[C@@H]1c1ccccc1 [Diprovocim-1, (3S,3'S,4S,4'S)-1,1′-Terephthaloylbis(N^3,N^4-bis((1S,2R)-2-phenylcyclo-propyl)pyrrolidine-3,4-dicarboxamide)] the “activation of TNF production compared with Pam3CSK4” value [1] was “more potent and efficacious; also recorded: more potent than Pam3CSK4”, the EC50 ([1]; read-out: EC50, dose-dependent TNF production) was 0.875 nM and the EC50 [2] was 1.3 nM. The IL-6 production [3] was “induced IL-6 production”, the “activity (TNF) in macrophages from MyD88-, TIRAP-, and IRAK4-deficient cells” value [4] was “dramatically reduced” and the “induction of TNF in TLR1- or TLR2-deficient macrophages” value [5] was “completely absent”. The “effect on THP-1 cells (TNF) after TLR1 or TLR2 antibody” value [6] was “significantly reduced”, the “phosphorylation of signaling proteins and IκBα degradation” value [7] was “induced phosphorylation of IκKα, IKKβ, p38, JNK, and ERK, as well as degradation of IκBα” and the “phosphorylation of signaling proteins and IκBα degradation” value [8] was “induced phosphorylation of IκKα, IKKβ, p38, JNK, and ERK, as well as degradation of IκBα”. For the same compound, the “memory response on tumor re-challenge” value [9] was “antigen-specific memory responses that protect the host from relapse of tumor growth”.
